This passage reports IC50 results from patent publication US12509467B2 (Hoffmann-La Roche Inc., priority 2020, dated 2025).

Molecules are shown by their SMILES.

T1 sequence (Q8N884 161-522): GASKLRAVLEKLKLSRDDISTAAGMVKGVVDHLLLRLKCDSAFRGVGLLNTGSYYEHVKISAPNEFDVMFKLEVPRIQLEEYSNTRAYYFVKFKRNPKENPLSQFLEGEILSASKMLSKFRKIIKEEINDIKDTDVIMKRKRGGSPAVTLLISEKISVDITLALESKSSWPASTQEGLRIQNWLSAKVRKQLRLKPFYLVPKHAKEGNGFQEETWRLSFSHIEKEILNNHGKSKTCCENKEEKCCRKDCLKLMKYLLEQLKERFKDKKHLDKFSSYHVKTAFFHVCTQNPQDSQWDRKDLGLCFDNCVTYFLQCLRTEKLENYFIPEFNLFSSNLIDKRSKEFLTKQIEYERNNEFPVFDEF

One experiment has as its target T1, human cGAS (residues 161-522) (Homo sapiens, UniProt Q8N884).
T1 construct: Recombinantly expressed purified human cGAS (residues 161-522) was used at 25 nM; made in house
The experiment can be described thus: cGAS Activity Assay—Malachite Green. The format is biochemical.
Conditions: not given
The gist of the method:
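Coupled malachite-green phosphate detection was used: enzyme and compound in 20 mM TRIS pH 7.5, 5 mM MgCl2, 0.01% BSA with 80 μM ATP, 80 μM GTP and 100 nM ISD DNA, 4 h at RT in the dark.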
As to `CCCc1cc(=O)n2nc(NCc3ccc(Cl)cc3F)nc2[nH]1` [Example 62], 4.04 µM corresponded to half-maximal inhibition (IC50). `CCCc1cc(=O)n2nc(OCc3cc(-c4cnn(C)c4)ccc3Cl)nc2[nH]1` [Example 91, 2-[[2-Chloro-5-(1-methylpyrazol-4-yl)phenyl]methoxyl]-5-propyl-4H-[1,2,4]triazolo[1,5-a]pyrimidin-7-one]: the IC50 worked out at 2.9 µM. For the compound `CCCc1cc(=O)n2nc(NCc3cnc(N4CCN(C)CC4)cc3Cl)nc2[nH]1` [Example 100], inhibition was half-maximal at 5.22 µM (IC50). `CC(C)Cc1cc(=O)n2nc(NCc3ccc(Cl)cc3Cl)nc2[nH]1` [Example 64, 2-[(2,4-dichlorophenyl)methyl-amino]-5-isobutyl-4H-[1,2,4]-triazolo[1,5-a]pyrimidin-7-one]: the IC50 is 3.33 µM.

Staying with this experiment, now noted: cGAS inhibition; 25 nM cGAS, 80 μM ATP, 80 μM GTP, 100 nM ISD, 4 hour at RT, Malachite Green phosphate detection; read-out: IC50 cGAS.
In the case of `CCCc1cc(=O)n2nc(NCc3ccc(-c4ccn(C)n4)cc3)nc2[nH]1` [Example 14, 2-[[4-(1-methylpyrazol-3-yl)-phenyl]methylamino]-5-propyl-4H-[1,2,4]triazolo[1,5-a]-pyrimidin-7-one], the IC50 was 4.92 µM. On the same count and under the same terms, under `O=c1cc(CC2CC2)[nH]c2nc(NCc3ccc(Cl)cc3Cl)nn12` [Example 63, 5-(cyclopropylmethyl)-2-[(2,4-dichlorophenyl)methylamino]-4H-[1,2,4]triazolo[1,5-a]-pyrimidin-7-one] stands 3.59 µM; under `CCCc1cc(=O)n2nc(NCc3ccc(OC4CC4)cc3)nc2[nH]1` [Example 10, 2-[[4-(cyclopropoxy)phenyl]-methylamino]-5-propyl-4H-[1,2,4]triazolo[1,5-a]pyrimidin-7-one], 4.08 µM; under `CCCc1cc(=O)n2nc(NCc3ccc(-n4ccnc4)cc3)nc2[nH]1` [Example 9, 2-[(4-imidazol-1-ylphenyl)meth-ylamino]-5-propyl-4H-[1,2,4]-triazolo[1,5-a]pyrimidin-7-one], 4.01 µM.

Turning to `CCCc1cc(=O)n2nc(NCc3ccc(N4CCOCC4)cc3Cl)nc2[nH]1` [Example 41, 2-[(2-chloro-4-morpholino-phenyl)methylamino]-5-propyl-4H-[1,2,4]triazolo[1,5-a]-pyrimidin-7-one], the IC50 turned out to be 0.701 µM.

As for `CCCc1cc(=O)n2nc(NCc3cc(-c4ccn(C)n4)ccc3C(F)(F)F)nc2[nH]1` [Example 81, 2-[[5-(1-Methylpyrazol-3-yl)-2-(trifluoromethyl)phenyl]methylamino]-5-propyl-4H-[1,2,4]-triazolo[1,5-a]pyrimidin-7-one], the half-inhibitory concentration (IC50) was 1.69 µM.

With `Cn1ccc(-c2ccc(Cl)c(CNc3nc4[nH]c(Cc5ccccc5)cc(=O)n4n3)c2)n1` [Example 27], the IC50 was 0.178 µM. Turning to `CCCc1cc(=O)n2nc(NCc3cc(-n4cnc(C)c4)ccc3Cl)nc2[nH]1` [Example 88, 2-[[2-Chloro-5-(4-methylimidazol-1-yl)phenyl]methylamino]-5-propyl-4H-[1,24]triazolo[1,5-a]pyrimidin-7-one], the IC50 worked out at 0.484 µM.

One may read the IC50 as the concentration that gives 50% inhibition.
